Experimental data: patent publication US20240092837A1, “Novel Peptide Carrier Compositions” (The Regents of the University of Colorado, A Body Corporate, priority 2021, published 2024)

Tested on: ARPE-19 cells
Test: Intracellular uptake of FITC labeled TAT and PHHP 1 peptides in ARPE-19 cells (fluorometry)
Format: cell-based, human
Details: 10 and 5 μM
Experimental: FIG. 9 are graphs of quantitation of in vitro cell uptake study of FITC labeled PHIP (P 1) and TAT peptides in ARPE-19 cells. Cells were grown to a 10,000 well density in 96 well fluorescent imaging plates with a transparent bottom. The ARPE-19 cells required an additional 48 hrs, to reach this cell density. Cells were incubated with 200 μl of 10 and 5 μM/ml FITC labeled PHHP (P 1) and TAT peptides and uptake was continued for 1 hour at 37° C. Following uptake; cells were washed three times with acidic PBS (pH 5.0) and normal PBS (pH 7.4) at 37° C. Cells were lysed using 0.1 M NaOH and quantified using a fluorometry method. Panel A illustrates uptake of peptides by ARPE-19 cells and absolute amount, and panel B illustrates the percentage uptake of peptides at different concentrations.
The cell uptake study of FITC labeled PHHP peptides in an ARPE-19 cell line was studied using fluorometry. ARPE —19 cells were grown in a DMEM/F12 medium. A cell density of 10,000 cells was plated into a 96 well plate for each cell lines, 48 hours before the start of the uptake study. […] All the samples were brought to room temperature and fluorescence spectra were recorded at an excitation wavelength of 493 nm and emission wavelength of 520 nm. The percentage uptake and absolute uptake were determined for each peptide at different concentrations and plotted as a bar graph for comparative analyses in FIG. 3.
Intracellular uptake of TAT and PHHP 1 peptides in ARPE-19 cells. […] All the samples were then brought to room temperature and fluorescence intensities were recorded at an excitation wavelength of 493 nm and emission wavelength of 520 nm.
Percentage uptake and statistical analyses at different concentrations were compared. […] The percentage uptake of the PHHP 1 peptide was determined to be ˜15-17, whereas ˜3-4% for TAT peptide. […] Furthermore, these proteins in their PHHP 1 tagged and un-tagged forms were evaluated for intracellular uptake properties in ARPE-19, A549, and hCET cells lines and for transcellular migration behavior across bovine and rabbit eyes cornea following topical dosing (FIG. 9).

Substance: PHHP 1: positive, helical, hydrophobic peptide variant, sequence WWFWIWFWWGPGRRKRRKRRR [SEQ ID 1] (Sequence is synthesized)
- fold improvement in the uptake relative to the TAT peptide (1 hour uptake at 37° C.): 4-7 fold
- uptake behavior (percentage uptake versus concentration) (FITC labeled peptide, 1 hour): concentration dependence
- percentage uptake (FITC labeled peptide, 1 hour uptake at 37° C.): 15-17%
